Measurements published in US5043450A, “8-alkoxyquinolonecarboxylic acid and salts thereof” (priority 1986, dated 1991).
≈ marks a conversion by molar mass, not a printed value. Where two headings read alike, the source gives them in different places.

Key:
Assay type in all cases: cell-based
[1] = tested on: Bacilus subtilis PCI 219; assay: Antibacterial spectra, MIC; conditions: Bacillus subtilis, PCI219
[2] = tested on: Staphylococcus aureus 209 P; assay: Antibacterial spectra, MIC
[3] = tested on: S. aureus IID 670 (Terajima); assay: Antibacterial spectra, MIC; conditions: Staphylococcus aureus, IID670
[4] = tested on: S. aureus Smith; assay: Antibacterial spectra, MIC; conditions: Staphylococcus aureus
[5] = tested on: E. coli ML 4707; assay: Antibacterial spectra, MIC; conditions: Escherichia coli, ML4707; 10^6 cells/ml; Gram -
Method: (§1) The antibacterial test was carried out according to the method designated by Japan Society of Chemotherapy.

[6] = tested on: E. faecalis IID 682; assay: Antibacterial spectra, MIC; conditions: Enterococcus faecalis, IID682; 10^6 cells/ml; Gram +
Method: as §1

[7] = tested on: Proteus vulgaris IFO 3167; assay: Antibacterial spectra, MIC; conditions: IFO3167, 10^6 cells/ml, Gram -
Method: as §1

[8] = tested on: Shigella sonnei IID 969; assay: Antibacterial spectra, MIC; conditions: IID969, 10^6 cells/ml, Gram -
Method: as §1

[9] = tested on: Streptococcus pyogenes (S-8); assay: Antibacterial spectra, MIC; conditions: 10^6 cells/ml, Gram +
Method: as §1

[10] = tested on: S. pyogenes IID 692; assay: Antibacterial spectra, MIC; conditions: Streptococcus pyogenes, IID692
[11] = tested on: S. pneumoniae IID 552; assay: Antibacterial spectra, MIC; conditions: Streptococcus pneumoniae, IID552
[12] = tested on: Escherichia coli NIHJ JC-2; assay: Antibacterial spectra, MIC; conditions: NIHJJC2
[13] = tested on: E. coli ATCC 10536; assay: Antibacterial spectra, MIC; conditions: Escherichia coli, ATCC10536
[14] = tested on: P. mirabilis IID 994; assay: Antibacterial spectra, MIC; conditions: Proteus mirabilis, IID994
[15] = tested on: Morganella morganii IID 602; assay: Antibacterial spectra, MIC; conditions: IID602
[16] = tested on: Klebsiella pneumoniae KY(GN)6445; assay: Antibacterial spectra, MIC
[17] = tested on: K. pneumoniae 1-220S; assay: Antibacterial spectra, MIC; conditions: Klebsiella pneumoniae, 1220S
[18] = tested on: Enterobacter cloacae IID 977; assay: Antibacterial spectra, MIC; conditions: IID977
[19] = tested on: Citrobacter freundii IID 976; assay: Antibacterial spectra, MIC; conditions: IID976
[20] = tested on: Serratia marcescens IID 618; assay: Antibacterial spectra, MIC; conditions: IID618
[21] = tested on: Salmonella enteritidis IID 604; assay: Antibacterial spectra, MIC; conditions: Salmonella enterica
[22] = tested on: Pseudomonas aeruginosa V-1; assay: Antibacterial spectra, MIC; conditions: V1
[23] = tested on: P. aeruginosa IFO 12689; assay: Antibacterial spectra, MIC; conditions: Pseudomonas aeruginosa, IFO12689; 10^6 cells/ml; Gram -; read-out: MIC
[24] = tested on: P. aeruginosa IID 1210; assay: Antibacterial spectra, MIC; conditions: Pseudomonas aeruginosa, IID1210; 10^6 cells/ml; Gram -; read-out: MIC
[25] = tested on: P. cepacia GIFU 518; assay: Antibacterial spectra, MIC; conditions: Burkholderia cepacia, GIFU518; 10^6 cells/ml; Gram -; read-out: MIC
[26] = tested on: P. maltophilia GIFU 2491; assay: Antibacterial spectra, MIC; conditions: Stenotrophomonas maltophilia, GIFU2491
[27] = tested on: Yersinia enterocolitica IID 981; assay: Antibacterial spectra, MIC; conditions: IID981
[28] = tested on: Acinetobacter anitratus IID 876; assay: Antibacterial spectra, MIC; conditions: Acinetobacter calcoaceticus, IID876
[29] = tested on: Alcaligenes faecalis 0114002; assay: Antibacterial spectra, MIC
[30] = tested on: Bacteroides fragilis GM 7000; assay: Antibacterial spectra, MIC
[31] = tested on: B. fragilis 0558; assay: Antibacterial spectra, MIC; conditions: Bacteroides fragilis
[32] = tested on: B. fragilis 25285; assay: Antibacterial spectra, MIC; conditions: Bacteroides fragilis
[33] = tested on: B. distasonis 8503; assay: Antibacterial spectra, MIC; conditions: Parabacteroides distasonis, 10^6 cells/ml, Gram -, read-out: MIC
[34] = tested on: B. thetaiotaomicron (0661); assay: Antibacterial spectra, MIC; conditions: Bacteroides thetaiotaomicron; 10^6 cells/ml; Gram -; read-out: MIC
[35] = tested on: B. vulgatus KYA 29327; assay: Antibacterial spectra, MIC; conditions: Phocaeicola vulgatus, KYA29327
[36] = tested on: Fusobacterium mortiferum 4249; assay: Antibacterial spectra, MIC
[37] = tested on: F. necrophorum S-45; assay: Antibacterial spectra, MIC; conditions: Fusobacterium necrophorum, S45; 10^6 cells/ml; Gram -; read-out: MIC
[38] = tested on: F. varium KYA 8501; assay: Antibacterial spectra, MIC; conditions: Fusobacterium varium, KYA8501; 10^6 cells/ml; Gram -; read-out: MIC
[39] = tested on: Eubacterium lentum GAI 5242; assay: Antibacterial spectra, MIC; conditions: Eggerthella lenta, GAI5242
[40] = tested on: Propionibacterium acens 11828; assay: Antibacterial spectra, MIC; conditions: 10^6 cells/ml, Gram +, read-out: MIC
[41] = tested on: Peptococcus magnus KY 017; assay: Antibacterial spectra, MIC; conditions: Finegoldia magna, KY017
[42] = tested on: C. perfringens KYA 13123; assay: microbe, parasite or virus in culture; conditions: Clostridium perfringens, KYA13123
[43] = tested on: C. ramosum; assay: Antibacterial spectra, MIC; conditions: Thomasclavelia ramosa; 10^6 cells/ml; Gram +; read-out: MIC
[44] = tested on: Peptostreptococcus anaerobius KYA 27337; assay: Antibacterial spectra, MIC
[45] = tested on: Pst. micros UPI 5464-1; assay: Antibacterial spectra, MIC; conditions: Parvimonas micra, UPI54641
[46] = tested on: Veillonella parvula KYA 10790; assay: Antibacterial spectra, MIC; conditions: KYA10790
[47] = 10^6 cells/ml, Gram -, read-out: MIC

`COc1c(N2CCNCC2)c(F)c(N)c2c(=O)c(C(=O)O)cn(C3CC3)c12` [Exp. 10, 5-amino-1-cyclopropyl-6-fluoro-1,4-dihydro-8-methoxy-4-oxo-7-(1-piperazinyl)-3-quinolinecarboxylic acid] gave an MIC [1] of 0.025 µg/mL (≈ 0.0664 µM), an MIC [2] of 0.05 µg/mL (≈ 0.133 µM) and an MIC [3] of 0.1 µg/mL (≈ 0.266 µM). The MIC [4] was 0.1 µg/mL (≈ 0.266 µM), the MIC [5] was 0.05 µg/mL (≈ 0.133 µM) and the MIC [6] was 0.39 µg/mL. For the same compound, the MIC [7] was 0.1 µg/mL (≈ 0.266 µM), the MIC [8] was 0.025 µg/mL (≈ 0.0664 µM) and the MIC [9] was 0.39 µg/mL. The MIC [10] was > 0.78 µg/mL, the MIC [11] was > 0.78 µg/mL and the MIC [12] was 0.025 µg/mL (≈ 0.0664 µM). It also gave an MIC [13] of 0.05 µg/mL (≈ 0.133 µM), an MIC [14] of 0.2 µg/mL (≈ 0.531 µM) and an MIC [15] of 0.2 µg/mL (≈ 0.531 µM). It also gave an MIC [16] of 0.05 µg/mL (≈ 0.133 µM), an MIC [17] of 0.2 µg/mL (≈ 0.531 µM) and an MIC [18] of 0.2 µg/mL (≈ 0.531 µM). For the same compound, the MIC [19] was 0.05 µg/mL (≈ 0.133 µM), the MIC [20] was 0.2 µg/mL (≈ 0.531 µM) and the MIC [21] was 0.2 µg/mL (≈ 0.531 µM). For the same compound, the MIC [22] was 0.39 µg/mL (≈ 1.04 µM), the MIC [23] was 1.56 µg/mL (≈ 4.14 µM) and the MIC [24] was 1.56 µg/mL (≈ 4.14 µM). The MIC [25] was 1.56 µg/mL (≈ 4.14 µM), the MIC [26] was 0.2 µg/mL (≈ 0.531 µM) and the MIC [27] was 0.2 µg/mL (≈ 0.531 µM). For the same compound, the MIC [28] was 0.1 µg/mL (≈ 0.266 µM), the MIC [29] was 0.78 µg/mL (≈ 2.07 µM) and the MIC ([30]; GM7000) was 3.13 µg/mL (≈ 8.32 µM). The MIC [31] was 3.13 µg/mL (≈ 8.32 µM), the MIC [32] was 3.13 µg/mL (≈ 8.32 µM) and the MIC [33] was 6.25 µg/mL (≈ 16.6 µM). It also gave an MIC [34] of 6.25 µg/mL (≈ 16.6 µM), an MIC [35] of 0.39 µg/mL (≈ 1.04 µM) and an MIC [36, 47] of 1.56 µg/mL (≈ 4.14 µM). The MIC [37] was 1.56 µg/mL (≈ 4.14 µM), the MIC [38] was 50 µg/mL (≈ 133 µM) and the MIC [39] was 0.78 µg/mL (≈ 2.07 µM). The MIC [40] was 12.5 µg/mL (≈ 33.2 µM), the MIC ([41]; 10^6 cells/ml, Gram +, read-out: MIC) was 1.56 µg/mL (≈ 4.14 µM) and the MIC [42] was 3.13 µg/mL (≈ 8.32 µM). The MIC [43] was 1.56 µg/mL (≈ 4.14 µM), the MIC ([44]; KYA27337, 10^6 cells/ml, Gram +, read-out: MIC) was 1.56 µg/mL (≈ 4.14 µM) and the MIC [45] was 0.39 µg/mL (≈ 1.04 µM). For the same compound, the MIC [46] was 0.39 µg/mL (≈ 1.04 µM).

For `COc1c(N2CCC(N)C2)c(F)c(N)c2c(=O)c(C(=O)O)cn(C3CC3)c12` (centres unmarked) [Exp. 11, 5-amino-7-(3-amino-1-pyrrolidinyl)-1-cyclopropyl-6-fluoro-1,4-dihydro-8-methoxy-4-oxo-3-quinolinecarboxylic acid], the MIC [1] was 0.0125 µg/mL (≈ 0.0332 µM), the MIC [2] was 0.025 µg/mL (≈ 0.0664 µM) and the MIC [3] was 0.05 µg/mL (≈ 0.133 µM). The MIC [4] was 0.025 µg/mL (≈ 0.0664 µM), the MIC [5] was 0.025 µg/mL (≈ 0.0664 µM) and the MIC [6] was 0.2 µg/mL. The MIC [7] was 0.2 µg/mL (≈ 0.531 µM), the MIC [8] was 0.025 µg/mL (≈ 0.0664 µM) and the MIC [9] was 0.2 µg/mL. It also gave an MIC [10] of 0.39 µg/mL (≈ 1.04 µM), an MIC [11] of 0.2 µg/mL (≈ 0.531 µM) and an MIC [12] of 0.025 µg/mL (≈ 0.0664 µM). The MIC [13] was 0.025 µg/mL (≈ 0.0664 µM), the MIC [14] was 0.1 µg/mL (≈ 0.266 µM) and the MIC [15] was 0.2 µg/mL (≈ 0.531 µM). For the same compound, the MIC [16] was 0.05 µg/mL (≈ 0.133 µM), the MIC [17] was 0.2 µg/mL (≈ 0.531 µM) and the MIC [18] was 0.05 µg/mL (≈ 0.133 µM). The MIC [19] was 0.05 µg/mL (≈ 0.133 µM), the MIC [20] was 0.2 µg/mL (≈ 0.531 µM) and the MIC [21] was 0.1 µg/mL (≈ 0.266 µM). For the same compound, the MIC [22] was 0.78 µg/mL (≈ 2.07 µM), the MIC [23] was 1.56 µg/mL (≈ 4.14 µM) and the MIC [24] was 1.56 µg/mL (≈ 4.14 µM). For the same compound, the MIC [25] was 1.56 µg/mL (≈ 4.14 µM), the MIC [26] was 0.2 µg/mL (≈ 0.531 µM) and the MIC [27] was 0.1 µg/mL (≈ 0.266 µM). The MIC [28] was 0.05 µg/mL (≈ 0.133 µM), the MIC [29] was 0.78 µg/mL (≈ 2.07 µM) and the MIC ([30]; GM7000, 10^6 cells/ml, Gram -, read-out: MIC) was 1.56 µg/mL (≈ 4.14 µM). It also gave an MIC [31, 47] of 1.56 µg/mL (≈ 4.14 µM), an MIC [32, 47] of 1.56 µg/mL (≈ 4.14 µM) and an MIC [33] of 12.5 µg/mL (≈ 33.2 µM). For the same compound, the MIC [34] was 1.56 µg/mL (≈ 4.14 µM), the MIC [35] was 0.78 µg/mL (≈ 2.07 µM) and the MIC [36] was 3.13 µg/mL (≈ 8.32 µM). For the same compound, the MIC [37] was 1.56 µg/mL (≈ 4.14 µM), the MIC [38] was 25 µg/mL (≈ 66.4 µM) and the MIC [39] was 0.39 µg/mL (≈ 1.04 µM). For the same compound, the MIC [40] was 6.25 µg/mL (≈ 16.6 µM), the MIC [41] was 0.78 µg/mL (≈ 2.07 µM) and the MIC [42] was 0.78 µg/mL (≈ 2.07 µM). The MIC [43] was 1.56 µg/mL (≈ 4.14 µM), the MIC ([44]; KYA27337) was 0.78 µg/mL (≈ 2.07 µM) and the MIC [45] was 0.78 µg/mL (≈ 2.07 µM). For the same compound, the MIC [46] was 0.78 µg/mL (≈ 2.07 µM).
